In US9856232B1, “Dihydropyrimidinone derivatives” (KING SAUD UNIVERSITY, priority 2017, dated 2018):
Marks after values point to notes of the source that are not given here.

Tests used:
[1] = tested on: Gastric lesions induced by necrotizing agents (80% ethanol, 0.2 mol/L NaOH or 25% NaCl); test: Gastric lesions induced by necrotizing agents (cytoprotection); type: in vivo, Albino Wistar rats; conditions: i.p, 30 min before necrotizing agent, mean ± SE
[2] = tested on: gastric mucosal non-protein sulfhydryls, induced by 80% ethanol; test: Estimation of non-protein sulfhydryls (NP-SH); type: in vivo, Albino Wistar rats; conditions: stomach tissue, 80% ethanol-treated rats, mean ± SE
Protocol: (§1) Albino Wistar rats of either sex, approximately the same age, weighing 150 to 200 g and fed on a diet of standard chow were used in this study. They were randomly divided into experimental groups of six rats each. Compounds (N-1 to N-18) 12.5, 25, and 50 mg/kg were given orally in the anti-ulcer studies and intraperitoneally for gastric secretion evaluation. The rats were sacrificed, and the stomachs removed and opened along the greater curvature, After washing with saline, the gastric lesions were quantified by a person unaware of the treatments. The animal study protocol was approved by the Research and Ethics Committee of the Experimental Animal Care Society, College of Pharmacy, King Saud University, Riyadh, Saudi Arabia.
Estimation of non-protein sulfhydryls (NP_SH): Gastric mucosal non-protein sulfhydryls were measured according to the method. The glandular part of the stomach was homogenized in ice-cold 0.02 mmol/L ethylenediaminetetraacetic acid (EDTA). Aliquots of 5 mL of the homogenates were mixed in 15 mL test tubes with 4 mL of distilled water and 1 mL of 50% trichloroacetic acid (TCA). The tubes were shaken intermittently for 10 minutes and centrifuged at 3000 r/min. Two milliliters of supernatant were mixed with 4 mL of 0.4 mol/L Tris buffer at pH 8.9. Then 0.1 ML of 5, 5′-dithio-bis (2-nitrobenzoic acid) (DTNB) was added and the sample was shaken. The absorbance was measured within 5 minutes of DTNB addition at 412 nm against a reagent blank.

[3] = tested on: gastric wall mucus in stomach tissue, change induced by 80% ethanol; test: Determination of gastric wall mucus (GWM); type: in vivo, Albino Wistar rats; conditions: i.p, 80% ethanol-treated rats, mean ± SE
Protocol: as §1
Determination of gastric wall mucus (GWM): Gastric wall mucus was determined according to the modified procedure. The glandular segment of the stomach was separated from the rumen of the stomach, weighed, and transferred immediately to 10 mL of 0.1% w/v Alcian blue solution (in […] sucrose solution buffered with […] sodium acetate at pH 5. Tissue was stained for 2 hours in Alcian blue, and excess dye was removed by two successive rinses with 10 mL of […] sucrose, firstly after 15 minutes and then after 45 minutes. Dye complexed with the gastric wall mucus was extracted with 10 ml of […] magnesium chloride which was intermittently shaken for 1 minute at 30 minute intervals for 2 hours. Four milliliters of blue extract were then vigorously shaken with an equal volume of diethyl ether. The resulting emulsion was centrifuged at 4000 r/min for 10 minutes and the absorbance of the aqueous layer was recorded at 580 nm. The quantity of Alcian blue extracted per gram of wet glandular tissue was then calculated. Table 6 provides the effect of compounds on the change in gastric wall mucus in stomach tissue induced by 80% ethanol (mean±SE).

[4] = tested on: Indomethacin-induced gastric mucosal lesions; test: Gastric lesions induced by Indomethacin; type: in vivo, Albino Wistar rats; set-up: scale not given here; conditions: i.p, 30 min before Indomethacin 30 mg/kg, mean ± SE
Source text: as §1, with “Compounds (N-1 to N-18) 12.5, 25, and 50 mg/kg were given orally in the anti-ulcer studies and intraperitoneally for gastric secretion evaluation.” left out
Gastric lesions induced by Indomethacin: Indomethacin was suspended in 1.0% carboxymethylcellulose (CMC) in water (6 mg/mL) and administered orally to the 36 hour fasted rats at a dose of 30 mg/kg body weight. Control rats were treated similarly with an equivalent amount of vehicle. […] The animals were sacrificed 6 hours after treatment. The stomachs were excised, rinsed with normal saline and examined for ulceration. Table 3 provides the effect of compounds on Indomethacin-induced gastric mucosal lesions (mean±SE).

[5] = tested on: Hypothermic restraint stress-induced intraluminal bleeding and gastric lesion; test: Hypothermic restraint stress-induced ulcers; type: in vivo, Albino Wistar rats; set-up: Gastric Lesion Ulcer Index: scale not given here; conditions: hypothermic restraint 3 h, mean ± SE
in vivo = conditions: mouse
Source text: (§2) At the end of the study period, expired animals were counted for the calculation of LD50. The following arithmetic method from Karber (Arch. Exptl. Pathol. Pharmakol, […], 162, 480-483) was used for the determination of LD50: LD50=LD100−Σ×(a×b)/n
(§3) wherein n=total number of animals in a group; a=the difference between two successive doses of administered extract/substance; b=the average number of dead animals in two successive doses; and LD100=lethal dose causing the 100% death of all test animals.
(§4) Table 8 provides the LD50 values of the compounds determined by the Karber method.

mouse = test: in vivo; conditions: 24 h
Source text: as §2, §3, §4

[6] = tested on: gastric mucosa of rats treated with 80% Ethanol; test: Histopathological evaluation of gastric tissue; type: in vivo, Albino Wistar rats; conditions: 50 mg/kg; FIG. 15B-15F
Protocol: Histopathological evaluation: Gastric tissue samples were fixed in neutral buffered formalin for 24 hours. Sections of gastric tissue were histopathologically examined to study the ulcerogenic and/or anti-ulcerogenic activity of compounds (N-3, N-8, N-11, and N-15). The tissues were fixed in 10% buffered formalin and processed using a VIP tissue processor. The processed tissues were embedded in paraffin blocks and sections about […] thick were cut using an American optical rotary microtome. These sections were stained with haematoxylin and eosin using routine procedures. The slides were examined microscopically for pathomorphological changes such as congestion, hemorrhage, edema, and erosions using an arbitrary scale for severity assessment of these changes (FIGS. 3-14).

For `COc1ccc(C2NC(=O)NC=C2C(=O)c2ccc(N3CCCCC3)cc2)c(OC)c1OC` (stereo not shown) [Compound N-15, 4-(2,3,4-Trimethoxyphenyl)-5-[4-(piperidin-1-yl)benzoyl]-3,4-dihydropyrimidin-2(1H)-one], the “Ulcer Index, 0.2 mol/L NaOH” value ([1]; 12.5 mg/kg) was 3.50 ± 0.22, the “Ulcer Index, 25% NaCl” value ([1]; 12.5 mg/kg) was 3.66 ± 0.33 and the “Ulcer Index, 80% EtOH” value ([1]; 12.5 mg/kg) was 4.66 ± 0.33. The “Ulcer Index, 0.2 mol/L NaOH” value ([1]; 25 mg/kg) was 2.16 ± 0.30, the “Ulcer Index, 25% NaCl” value ([1]; 25 mg/kg) was 2.66 ± 0.33 and the “Ulcer Index, 80% EtOH” value ([1]; 25 mg/kg) was 2.66 ± 0.33. The “Ulcer Index, 0.2 mol/L NaOH” value ([1]; 50 mg/kg) was 1.33 ± 0.42, the “Ulcer Index, 25% NaCl” value ([1]; 50 mg/kg) was 1.66 ± 0.33 and the “Ulcer Index, 80% EtOH” value ([1]; 50 mg/kg) was 2.16 ± 0.30. For the same molecule, the NP-SH ([2]; dose 12.5) was 3.38 ± 0.07^b nmol/g, the NP-SH ([2]; dose 25) was 4.29 ± 0.24**^b nmol/g and the NP-SH ([2]; dose 50) was 4.92 ± 0.30***^b nmol/g. For the same molecule, the “Gastric Wall Mucus” value ([3]; 12.5 mg/kg) was 231.78 ± 4.77*^b μg/g, the “Gastric Wall Mucus” value ([3]; 25 mg/kg) was 248.09 ± 7.69**^b μg/g and the “Gastric Wall Mucus” value ([3]; 50 mg/kg) was 275.32 ± 5.37***^b μg/g. The “Ulcer Index, indomethacin-induced gastric mucosal lesions” value ([4]; 12.5 mg/kg) was 26.33 ± 1.30, the “Ulcer Index, indomethacin-induced gastric mucosal lesions” value ([4]; 50 mg/kg) was 14.50 ± 1.64 and the “Gastric Lesion Ulcer Index” value ([5]; 12.5 mg/kg) was 25.66 ± 1.08. For the same molecule, the “Intraluminal Bleeding Score” value ([5]; 12.5 mg/kg) was 2.16 ± 0.30, the “Gastric Lesion Ulcer Index” value ([5]; 25 mg/kg) was 16.66 ± 0.33 and the “Intraluminal Bleeding Score” value ([5]; 25 mg/kg) was 1.66 ± 0.21. For the same molecule, the “Gastric Lesion Ulcer Index” value ([5]; 50 mg/kg) was 12.33 ± 0.84, the “Intraluminal Bleeding Score” value ([5]; 50 mg/kg) was 1.33 ± 0.33 and the LD50 at 24 h (in vivo) was 116 mg/kg. For the same molecule, the “Dead (of 10 animals)” value (mouse; 5 mg/kg) was 0, the “Dead (of 10 animals)” value (mouse; 25 mg/kg) was 1 and the “Dead (of 10 animals)” value (mouse; 50 mg/kg) was 3. For the same molecule, the “Dead (of 10 animals)” value (mouse; 100 mg/kg) was 4, the “Dead (of 10 animals)” value (mouse; 200 mg/kg) was 9 and the “Dead (of 10 animals)” value (mouse; 300 mg/kg) was 10. The “Gastric section, effect on gastric mucosa (histology)” value [6] was “intact normal mucosa”.
